According to patent publication US8791079B2, “Methods for treating heart failure by inhibiting the mitochondrial sodium-calcium exchanger (mNCE)” (priority 2009, dated 2014):

Assays:
[1] = system: Guinea pig ventricular myocytes; test: Cytosolic Ca2+ ([Ca2+]c, indo-1) cycling in isolated myocytes; type: cell-based; details: ouabain without or with CGP-37157; for diastolic [Ca2+]c before stimulation / diastolic [Ca2+]c after three minutes of stimulation / increase of amplitude of [Ca2+]c transient (Δ[Ca2+]c) compared to control: 100-nM isoproterenol; for diastolic [Ca2+]c before stimulation: before 1-Hz stimulation; for diastolic [Ca2+]c after three minutes of stimulation: end of 1-Hz stimulation; for increase of amplitude of [Ca2+]c transient (Δ[Ca2+]c) compared to control: midpoint of 1-Hz stimulation, control = isoproterenol only; for spontaneous Ca2+ oscillations / discordant contractions: prolonged stimulation
Description: (§1) Guinea pig ventricular myocytes were isolated by enzymatic digestion as described previously. O'Rourke, B., et al., “Oscillations of membrane current and excitability driven by metabolic oscillations in heart cells,” Science, 265(5174):962-966 (Aug. 12, 1994). Cells were suspended in Dulbecco's Modification of Eagle's Medium (DMEM) supplemented with 5% fetal bovine serum, 1% penicillin/streptomycin, and 15 mmol/L HEPES, pH 7.4, and stored in a 5% CO2 incubator at 37° C.
(§2) Cytosolic Ca^2+ ([Ca^2+]c), mitochondrial Ca^2+ ([Ca^2+]m), and [Na^+]i were measured with the fluorescent indicators indo-1, rhod-2, and sodium-binding benzofuran isophthalate (SBFI), respectively (Invitrogen, Carlsbad, Calif.), and mitochondrial NADH was measured as the cellular autofluorescence with 360-nm excitation/450-nm emission. Indo-1 was loaded into cell with the membrane permeable form, indo-1 AM. To minimize indo-1 loading into the mitochondrial compartment, cells were briefly incubated with indo-1 AM at room temperature for 20 min. Rhod-2 and SBFI experiments were carried out as previously described. Maack et al., supra, Liu and O'Rourke, supra. Cytoplasmic rhod-2 was eliminated by using rhod-2-free patch pipettes. Maack et al., supra, Liu and O'Rourke, supra. The ROS-sensitive fluorescent probe 5-(−6)-chloromethyl-2′,7′-dichlorohydrofluorescein diacetate (CM-H2DCFDA) was used to monitor the extent of oxidative stress, as previously described. Aon, M. A., et al., “Synchronized whole cell oscillations in mitochondrial metabolism triggered by a local release of reactive oxygen species in cardiac myocytes,” J. Biol. Chem., 278(45):44735-44744 (Nov. 7, 2003). This probe is primarily localized in the mitochondrial matrix, see Aon et al., supra, and is oxidized by hydrogen peroxide to yield fluorescent CM-DCF, thus indirectly reporting mitochondrial superoxide production.
(§3) Isolated ventricular myocytes were loaded into a heated field-stimulation chamber (Warner Instruments, Hamden, Conn.) at 37° C. on the stage of a fluorescence microscope (Nikon Eclipse TE300, Nikon Instruments, Inc., Melville, N.Y.). The myocytes were first superfused with control Tyrode's solution containing: NaCl (130 mmol/L), KCl (5 mmol/L), MgCl2 (1 mmol/L), Na-HEPES (10 mmol/L), CaCl2 (2 mmol/L), glucose (10 mmol/L), at pH 7.4. After one minute of recording in the absence of electrical stimulation in control buffer, 1-μM ouabain and 100-nM isoproterenol, with or without 1 μM CGP-37157, were added to buffer. After another five minutes of recording, myocytes were field-stimulated at 1 Hz for three minutes followed by a two-minute recording after returning to the resting state. To record [Ca^2+]m and action potentials, myocytes were whole-cell patch-clamped at 37° C. Tyrode's solution was used as external solution and the internal solution contained: NaCl (10 mmol/L), KCl (19 mmol/L), K-glutamate (125 mmol/L), MgCl2 (0.5 mmol/L), HEPES (10 mmol/L), MgATP (5 mmol/L), at pH 7.25.

[2] = system: Guinea pig ventricular myocytes; test: Action potentials and delayed afterdepolarizations in current-clamped myocytes; type: cell-based; details: for incidence of DAD-triggered APs: 100-nM isoproterenol, 1-μM ouabain without or with 1-μM CGP-37157, 1 Hz, last minute of stimulation
Description: as §1, §3
In current-clamped myocytes, electrically-stimulated action potentials (APs) were recorded at 1 Hz and the probability of observing one or more delayed afterdepolarization-(DAD) triggered action potentials was determined during the last minute of stimulation.

[3] = system: Guinea pig ventricular myocytes; test: Mitochondrial Ca2+ ([Ca2+]m, rhod-2) in patch-clamped myocytes; type: cell-based
Description: as §1
Cytosolic Ca^2+ ([Ca^2+]c), mitochondrial Ca^2+ ([Ca^2+]m), and [Na^+]i were measured with the fluorescent indicators indo-1, rhod-2, and sodium-binding benzofuran isophthalate (SBFI), respectively (Invitrogen, Carlsbad, Calif.), and mitochondrial NADH was measured as the cellular autofluorescence with 360-nm excitation/450-nm emission. Indo-1 was loaded into cell with the membrane permeable form, indo-1 AM. To minimize indo-1 loading into the mitochondrial compartment, cells were briefly incubated with indo-1 AM at room temperature for 20 min. Rhod-2 and SBFI experiments were carried out as previously described. Maack et al., supra, Liu and O'Rourke, supra. […]
Isolated ventricular myocytes were loaded into a heated field-stimulation chamber (Warner Instruments, Hamden, Conn.) at 37° C. on the stage of a fluorescence microscope (Nikon Eclipse TE300, Nikon Instruments, Inc., Melville, N.Y.). […]

Guinea pig hearts = test: Hemodynamics of isolated perfused hearts (Langendorff)
Text: Guinea pig hearts were quickly excised under anesthesia and mounted on a modified Langendorff apparatus attached to a Powerlab system (AD Instruments, Colorado Springs, Colo.). Hearts were perfused with gassed (95/5% O2/CO2) control buffer containing: 118-mM NaCl, 24-mM NaHCO3, 1.2-mM KH2PO4, 4.75-mM KCl, 1.2-mM MgSO4, 2.0-mM CaCl2, and 10-mM glucose. A buffer-filled latex balloon (Harvard apparatus) was inserted through the mitral valve into the left ventricle. Hearts were suspended in a buffer-filled heating chamber maintained at 37° C. and two electrodes were placed into the bath for volume-conducted electrocardiogram recordings. Heart rate, left ventricular developed pressure (LVDP), maximal rates of contraction and relaxation (±dP/dt), oxygen consumption, and electrocardiograms (ECG) were recorded on a computer. After a ten-minute equilibration period, hearts were subjected to the following protocol: ten-minute baseline recording while the heart was perfused with control buffer, ten-minute recording while 0.25-μM ouabain with or without 1 μM CGP-37157, and sixty-minute recording while hearts were stimulated with 25-nM isoproterenol. The measurements of hemodynamic parameters were determined by taking the average during the last two minutes before ouabain treatment (baseline) and for two minutes during the maximal effect on LVDP of either ouabain or isoproterenol.
In Table 1A-1C, hemodynamics of isolated perfused hearts were recorded at baseline, with ouabain treatment (1 μM), and with ouabain plus isoproterenol (100 nM) stimulation with or without CGP-37157 (1 μM). HR, heart rate; LVDP, left ventricular developed pressure; Oua: ouabain; CGP: CGP-37157; VF: ventricular fibrillation. *p<0.05 compared to group without CGP; † p<0.05 compared to baseline.

[4] = system: Guinea pig ventricular myocytes; test: Mitochondrial NADH autofluorescence in isolated myocytes during 1-Hz stimulation; type: cell-based; details: 1-μM ouabain + 100-nM isoproterenol, without (ouabain) or with 1 μM CGP-37157; for NADH level before stimulation: before 1-Hz stimulation; for NADH level by the end of stimulation: end of 1-Hz stimulation (three minutes)
Description: as §1, §2
as §3, with “Tyrode's solution was used as external solution and the internal solution contained: NaCl (10 mmol/L), KCl (19 mmol/L), K-glutamate (125 mmol/L), MgCl2 (0.5 mmol/L), HEPES (10 mmol/L), MgATP (5 mmol/L), at pH 7.25.” left out

[5] = 25-nM isoproterenol in ouabain-treated hearts, absence (isoproterenol) or presence of CGP-37157
[6] = at baseline, group with CGP-37157
[7] = ouabain application, without or with CGP-37157
[8] = with ouabain treatment (1 μM, 0.25-μM), −CGP = ouabain alone, +CGP = plus CGP-37157 1 μM
[9] = with ouabain treatment and isoproterenol stimulation, −CGP without, +CGP with CGP-37157 1 μM

Row | Compound | diastolic [Ca2+]c before stimulation [1] [nM] | diastolic [Ca2+]c after three minutes of stimulation [1] [nM] | increase of amplitude of [Ca2+]c transient (Δ[Ca2+]c) compared to control [1] [%] | spontaneous Ca2+ oscillations / discordant contractions [1] | incidence of DAD-triggered APs [2] | increase of +dP/dt compared to baseline (Guinea pig hearts; [7]) | increase of −dP/dt compared to baseline (Guinea pig hearts; [7]) | +dP/dt (Guinea pig hearts; [8]) | HR (Guinea pig hearts; [8]) | LVDP (Guinea pig hearts; [8]) | −dP/dt (Guinea pig hearts; [8]) | +dP/dt (Guinea pig hearts; [9]) | HR (Guinea pig hearts; [9]) | LVDP (Guinea pig hearts; [9]) | NADH level before stimulation [4] [%] | NADH level by the end of stimulation [4] [%] | other results
1 | O=C1CSC(c2ccccc2Cl)c2cc(Cl)ccc2N1 (stereo not drawn) [CGP-37157, 7-chloro-5-(2-chlorophenyl)-1,5-dihydro-4,1-benzothiazepin-2(3H)-one] | 99 ± 14 | 370 ± 60 | 74 | significantly reduced the incidence of discordant contractions | not significantly different from controls | approximately 36% | approximately 23% | 3167 ± 481 † | 250.0 ± 13.4 | 100.7 ± 12.0 † | −2306 ± 218 † | 5530 ± 736 † * | 306.7 ± 22.8 † | 130.9 ± 18.4 † | 78.3±3.2 | 80.6±2.5 | amplitude of DADs ([2]; ouabain plus CGP-37157 versus ouabain alone): smaller amplitude than in ouabain alone; [Ca2+]m accumulation ([3]; 1 μM CGP-37157 with 1-μM ouabain + 100-nM isoproterenol, 1-Hz stimulation): significantly enhanced [Ca^2+]m accumulation; increase of +dP/dt compared to the level with ouabain treatment (Guinea pig hearts; [5]): 75%; increase of LVDP compared to the level with ouabain treatment (Guinea pig hearts; [5]): 30%; increase of heart rate (HR) compared to the level with ouabain treatment (Guinea pig hearts; [5]): 23%; increase of −dP/dt compared to the level with ouabain treatment (Guinea pig hearts; [5]): 53%; +dP/dt (Guinea pig hearts; [6]): 2326 ± 303; HR (Guinea pig hearts; [6]): 239.3 ± 8.0; LVDP (Guinea pig hearts; [6]): 91.9 ± 10.6; −dP/dt (Guinea pig hearts; [6]): −1872 ± 163; −dP/dt (Guinea pig hearts; [9]): −3518 ± 419 †
2 | C[C@@H]1O[C@@H](O[C@H]2C[C@@H](O)[C@]3(CO)[C@H]4[C@H](O)C[C@]5(C)[C@@H](C6=CC(=O)OC6)CC[C@]5(O)[C@@H]4CC[C@]3(O)C2)[C@H](O)[C@H](O)[C@H]1O [ouabain, 1β,3β,5β,11α,14,19-Hexahydroxycard-20(22)-enolide 3-(6-deoxy-α-L-mannopyranoside, reference compound] | 123 ± 9 | 750 ± 142 | 112 | developed spontaneous Ca^2+ oscillations, extrasystolic contractions, and eventual hypercontracture | significant increase in the incidence of DAD-triggered APs | 20% | 4% | 2241 ± 376 † | 246.3 ± 20.3 | 106.0 ± 17.0 † | −1855 ± 229 † | 3529 ± 644 † | 315.3 ± 25.0 † | 100.4 ± 18.3 | 81.7±1.8 | 52.3±5.7 | increase of diastolic [Ca2+]m during 1-Hz stimulation ([3]; 1-μM ouabain + 100-nM isoproterenol): < 10%; increase of LVDP compared to baseline (Guinea pig hearts; [7]): 13%
